Assay results: patent US20190225985A1, “Enhancing Bacillus Thuringiensis CRY Insecticidal Activity With a Chaperone” (Universidad Nacional Autónoma de México, priority 2016, published 2019)
Like-named read-outs stand apart in the source and are kept apart here.

Columns and labels:
Hsp70 = test: ELISA binding assay of Hsp70 to Cry toxins; parameters: species or system Plutella xylostella; details: coated protoxin, different concentrations of Hsp70, FIG. 5
Description: (§1) The binding of Hsp90 or Hsp70 to Cry1Ab and Cry1AbMod protoxins was analyzed by ELISA binding assays. […] More specifically, 50 μl of 40 nM of each protoxin in binding buffer (100 mM carbonate pH 9.5) was used to coat ELISA 96 well plates. ELISA plates were incubated overnight at 4° C. After removing the protoxin solution, the plate was blocked with blocking-buffer (1% BSA in PBS 1X) for 1 hr at room temperature. […] The plate was washed three times with washing buffer (PBS 1X) and then 50 μl of a 1/10,000 dilution of anti-polyHistidine-Peroxidase conjugate (Sigma-Aldrich) was added to each well and incubated for 1 hr at 30° C. The reaction was developed with 50 μl of ortophenylenediamine in a substrate buffer (100 mM K3PO4; pH 5) in a final concentration of 1 mg/ml and […] of peroxide oxide. The reaction was stopped by adding 25 μl of HCl, 6N. The plates were read on microtiter plate reader at OD 490 nm.
(§2) Data represent means of 8 wells and each experiment was repeated two times. The statistical calculations (mean and standard deviation) and graphics were performed using the Microsoft Excel Program.

[1] = tested on: Plutella xylostella larvae; details: soluble protoxin; taken from reference 16; cited from earlier work
Hsp90 = test: ELISA binding assay of Hsp90 to Cry toxins; parameters: species or system Plutella xylostella; details: for binding of Hsp90 to toxin (ELISA): coated protoxin, serial dilutions of Hsp90, FIG. 4A-E
Description: as §1, §2

[2] = tested on: M. sexta brush border membrane vesicles (BBMV); test: Oligomerization of Cry1Ab with brush border membrane vesicles in the presence of Hsp90, Western blot; type: biochemical
Description: Oligomerization of Cry1Ab. Brush border membrane vesicles (BBMV) were prepared using M. sexta midgut tissues from third instar larvae by the magnesium precipitation method without protease inhibitors^21 and suspended in 50 mM Na2CO3, pH 9, and stored at −70° C. until used. The BBMV protein concentrations were determined with the Lowry DC protein assay (BioRad, Hercules, Calif.) using bovine serum albumin as a standard. Fifteen μg or 30 μg of Hsp90 were incubated with 1 μg Cry1Ab toxin or protoxin in the presence of Hsp90 buffer. Control samples contained Cry1Ab proteins without Hsp90. Cry1Ab oligomerization was analyzed after incubation of 1 μg of Cry1Ab toxin or protoxin with 10 μg of BBMV protein for 1 h at 37° C. in a total volume of […] alkaline buffer, pH 10.5. BBMV were recovered by a 30 min centrifugation at 60,000 rpm at 4° C. The pellet was washed once with 100 μl of alkaline buffer by centrifugation, and suspended in 60 μl of the same buffer. Laemmli sample buffer 4X was added and the sample was incubated three min at 50° C. Samples were separated in 8% SDS-PAGE, electro transferred to PVDF membrane and Cry1Ab proteins were detected by Westernblot as described above.

[3] = tested on: Plutella xylostella larvae; type: in vivo; details: for effect of Hsp90 on toxicity: protoxin at about 10% mortality, increasing Hsp90, FIG. 1
Description: The hsp90 and hsp70 genes from the lepidopteran insect Plutella xylostella and the GroEL gene from Alcaligenes faecalis were cloned into an expression vector for production in E. coli cells. P. xylostella is a pest of cruciferous crops worldwide, is susceptible to Cry1A toxins and has evolved resistance to Cry1Ac and Cry1Ab in field conditions^18. To determine the effect of Hsp90, Hsp70 or GroEL on Cry1Ab and Cry1Ac toxicity, bioassays were performed against P. xylostella larvae using a protoxin concentration that would produce around 10% mortality in the presence of increasing amounts of Hsp90, Hsp70 or GroEL.
Bioassays were performed with 24 third instar larvae of P. xylostella using 24 wells plates. Larval diet was surface contaminated with different concentrations of Cry1A protoxin plus Hsp90 or Hsp70 or protoxin alone without any chaperone. The samples containing protoxin and Hsp90 were previously incubated for 30 min at 37° C. in Hsp90 buffer (1 mM Mg, 1 mMATP, in PBS1X). Each experiment was performed in triplicate (72 larvae per treatment). Mortality was assessed after 7 days. The statistical calculations (mean and standard deviation) and graphics were performed using the Microsoft Excel Program. Negative control diet was surface contaminated with the highest Hsp90 concentration without Cry1A protoxin to test the possible toxic effect of the protein or the buffer itself.
In the case where the LC50 was calculated, increasing concentrations of protoxin plus Hsp90 (in the protein relation indicated in the table) was used to surface contaminate diet in 24-well plates. These experiments were performed in triplicate. Mortality was assessed after 7 days and the effective dose was calculated using Probit analysis (Polo-PC LeOra Software).

[4] = excess of 500 μg per well of Hsp90

Hsp90, sequence (as listed by the source): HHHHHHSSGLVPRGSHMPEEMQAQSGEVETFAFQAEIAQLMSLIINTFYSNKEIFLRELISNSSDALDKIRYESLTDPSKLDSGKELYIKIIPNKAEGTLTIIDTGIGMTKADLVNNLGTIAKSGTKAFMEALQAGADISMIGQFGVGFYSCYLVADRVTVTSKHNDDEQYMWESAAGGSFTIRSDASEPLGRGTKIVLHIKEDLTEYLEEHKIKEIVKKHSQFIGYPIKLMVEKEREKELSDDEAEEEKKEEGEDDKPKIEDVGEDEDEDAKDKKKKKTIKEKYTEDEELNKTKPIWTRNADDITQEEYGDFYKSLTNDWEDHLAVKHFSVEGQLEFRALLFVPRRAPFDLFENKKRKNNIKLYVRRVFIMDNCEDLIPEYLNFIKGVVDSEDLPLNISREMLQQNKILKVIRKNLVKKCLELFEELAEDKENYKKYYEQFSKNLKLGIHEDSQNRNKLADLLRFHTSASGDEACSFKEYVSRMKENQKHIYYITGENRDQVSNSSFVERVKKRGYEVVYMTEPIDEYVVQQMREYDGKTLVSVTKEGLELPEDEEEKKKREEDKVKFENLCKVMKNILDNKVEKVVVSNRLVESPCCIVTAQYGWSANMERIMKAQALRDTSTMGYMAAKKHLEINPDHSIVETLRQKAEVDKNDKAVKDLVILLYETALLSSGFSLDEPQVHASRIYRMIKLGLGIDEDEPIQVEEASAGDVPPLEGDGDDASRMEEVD
Hsp70, sequence (as listed by the source): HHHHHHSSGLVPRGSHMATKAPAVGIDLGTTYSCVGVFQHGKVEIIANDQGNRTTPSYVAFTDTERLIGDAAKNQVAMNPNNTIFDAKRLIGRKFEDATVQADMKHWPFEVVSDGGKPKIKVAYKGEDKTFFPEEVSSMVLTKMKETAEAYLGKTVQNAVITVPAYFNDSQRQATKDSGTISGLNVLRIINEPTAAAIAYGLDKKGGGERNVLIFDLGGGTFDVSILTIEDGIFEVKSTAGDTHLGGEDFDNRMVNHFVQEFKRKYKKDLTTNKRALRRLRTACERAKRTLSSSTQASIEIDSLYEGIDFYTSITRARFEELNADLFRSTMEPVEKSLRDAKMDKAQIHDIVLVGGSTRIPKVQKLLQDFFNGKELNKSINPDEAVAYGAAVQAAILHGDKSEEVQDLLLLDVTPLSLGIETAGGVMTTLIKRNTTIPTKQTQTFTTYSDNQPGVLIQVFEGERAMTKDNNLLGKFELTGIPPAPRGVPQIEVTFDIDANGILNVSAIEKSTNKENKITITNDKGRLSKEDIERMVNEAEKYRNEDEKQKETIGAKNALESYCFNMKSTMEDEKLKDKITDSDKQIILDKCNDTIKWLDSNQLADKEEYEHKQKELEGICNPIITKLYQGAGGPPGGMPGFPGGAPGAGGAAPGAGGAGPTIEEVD

Substance: Cry1Ab
- binding of Hsp70 to toxin (ELISA) (Hsp70): bound
- LC50 [1]: 4.69 ng/well
- binding of Hsp90 to toxin (ELISA) (Hsp90): bound
- yield of the 250 kDa Cry1Ab oligomer ([2]; from Cry1Ab protoxin): significantly enhanced
- yield of the 250 kDa Cry1Ab oligomer ([2]; from Cry1Ab toxin): significantly enhanced
- mortality ([3]; 200 ng per well of Hsp90): 80%
- mortality [3, 4]: 100%
- effect of Hsp90 on toxicity [3]: enhanced in an Hsp90 concentration dependent manner

Substance: Cry1Ac
- binding of Hsp70 to toxin (ELISA) (Hsp70): bound
- LC50 [1]: 0.71 ng/well
- binding of Hsp90 to Cry1Ac (Hsp90; 100 nM Hsp90, absence of ATP (FIG. 4F lane 2)): significantly reduced
- binding of Hsp90 to toxin (ELISA) (Hsp90): bound
- mortality ([3]; 100 ng per well of Hsp70): 80%
- mortality ([3]; 200 ng per well of Hsp90): 80%
- mortality ([3]; GroEL 100 ng per well): 80%
- mortality ([3]; excess of 200 μg per well of GroEL): 100%
- mortality ([3]; excess of 200 μg per well of Hsp70): 100%
- mortality [3, 4]: 100%
- effect of GroEL on toxicity ([3]; increasing GroEL, FIG. 3): enhanced in concentration dependent manner
- effect of Hsp70 on toxicity ([3]; increasing Hsp70, FIG. 2): enhanced in an Hsp70 concentration dependent manner
- effect of Hsp90 on toxicity [3]: enhanced in an Hsp90 concentration dependent manner
